Assay results as given in PubChem BioAssay (NCI).
Several values for one entry are separate records, joined by “and”; a condition that tells them apart may be missing. Equal entries are not always repeated.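 In this assay, cells in 96-well plates receive the compound at five concentrations for 48 hours. Endpoints are linearly interpolated between the surrounding concentrations. The concentration for 50% growth inhibition is given as GI50. Definition used: TGI = concentration required for complete inhibition of growth.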

Assays:
Assay in all cases: NCI anticancer screen, dose series, 48 h
HT29 colon = test system: HT29 colon
RPMI-8226 leukemia = test system: RPMI-8226 leukemia
KM12 colon = test system: KM12 colon
CAKI-1 renal = test system: CAKI-1 renal
NCI-H23 lung = test system: NCI-H23 lung
OVCAR-3 ovarian = test system: OVCAR-3 ovarian
TK-10 renal = test system: TK-10 renal
UACC-257 melanoma = test system: UACC-257 melanoma
DU-145 prostate = test system: DU-145 prostate
MALME-3M melanoma = test system: MALME-3M melanoma

Structure (SMILES)	TGI (HT29 colon)	TGI (RPMI-8226 leukemia)	TGI (KM12 colon)	TGI (CAKI-1 renal)	TGI (NCI-H23 lung)	TGI (OVCAR-3 ovarian)	TGI (TK-10 renal)	TGI (UACC-257 melanoma)	TGI (DU-145 prostate)	TGI (MALME-3M melanoma)	GI50 (HT29 colon)	GI50 (RPMI-8226 leukemia)	GI50 (KM12 colon)	GI50 (CAKI-1 renal)	GI50 (NCI-H23 lung)	GI50 (OVCAR-3 ovarian)	GI50 (TK-10 renal)	GI50 (UACC-257 melanoma)	GI50 (DU-145 prostate)	GI50 (MALME-3M melanoma)
Nc1c(S(=O)(=O)O)cc(Nc2cccc(S(=O)(=O)/C=C/S(=O)(=O)O)c2)c2c1C(=O)c1ccccc1C2=O	> 100 µM	> 100 µM	> 100 µM	> 100 µM	> 100 µM	> 100 µM	> 100 µM	> 100 µM	> 100 µM	> 100 µM	–	–	–	–	–	–	–	–	–	–
COc1ccc(/C=N/n2c(Cc3ccc(Cl)cc3)n[nH]c2=O)c(OC)c1	75.1 µM	> 100 µM	> 100 µM	> 100 µM	> 100 µM	> 100 µM	52.2 µM	> 100 µM	> 100 µM	> 100 µM	–	–	–	–	–	–	–	–	–	–
COc1cc2c(cc1Cl)n([O-])c(C#N)c(N1CCN(c3ccc([N+](=O)[O-])cc3)CC1)[n+]2=O	> 100 µM	> 100 µM	> 100 µM	> 100 µM	91.3 µM	> 100 µM	> 100 µM	> 100 µM	> 100 µM	99.6 µM	–	–	–	–	–	–	–	–	–	–
NCCCCNC1(c2cc3ccccc3s2)CCCCC1	9.7 µM	6.1 µM	10.7 µM	28.1 µM	28.9 µM	9.28 µM	10.4 µM	3.38 µM	23.5 µM	4.01 µM	–	–	–	–	–	–	–	–	–	–
Nc1nc2cc(CNc3ccc(C(=O)NC(CCC(=O)O)C(=O)O)cc3)ccc2nc1-c1ccccc1 (stereo unspecified)	> 10 µM	> 10 µM	> 10 µM	> 10 µM	> 10 µM	> 10 µM	> 10 µM	> 10 µM	> 10 µM	> 10 µM	–	–	–	–	–	–	–	–	–	–
COc1ccc(C2=CN3CCC[C@H]3C=C2c2cc(O)c(OC)c(OC)c2)cc1OC	0.113 µM and 0.0377 µM	0.0806 µM and 0.202 µM	0.0394 µM	0.0522 µM	0.0278 µM	0.0669 µM and 0.0274 µM	0.153 µM	0.0899 µM	0.254 µM	0.0333 µM	–	–	–	–	–	–	–	–	–	–
COc1ccc(/C=C2\CN(C)Cc3c2[nH]c(=O)c(C#N)c3-c2ccc(OC)cc2)cc1	> 100 µM	71.6 µM	> 100 µM	> 100 µM	> 100 µM	> 100 µM	> 100 µM	> 100 µM	> 100 µM	> 100 µM	–	–	–	–	–	–	–	–	–	–
O=C(Nc1cccc(-n2ccc3c(NC(=O)c4ccccc4)nccc32)c1)c1cc(N2CCOCC2)cc(C(F)(F)F)c1	0.446 µM	–	–	–	> 100 µM	0.0605 µM	> 95.5 µM	> 100 µM	–	> 100 µM	0.0312 µM	0.223 µM	0.0628 µM	0.0641 µM	0.613 µM	0.0259 µM	0.435 µM	0.109 µM	0.164 µM	1.25 µM
Cc1cccc2c1C/C(=C\c1cccc(C)c1C(=O)O)C2=O	> 100 µM	> 100 µM	> 100 µM	> 100 µM	> 100 µM	> 100 µM	> 100 µM	> 100 µM	> 100 µM	> 100 µM	–	–	–	–	–	–	–	–	–	–
CC(C)(C)OC(=O)NCC(=O)N1CCCN(C(=O)CNC(=O)OC(C)(C)C)CC1	> 100 µM	> 100 µM	> 100 µM	> 100 µM	> 100 µM	> 100 µM	> 100 µM	> 100 µM	> 100 µM	> 100 µM	–	–	–	–	–	–	–	–	–	–
O=C(NN1C(=O)C=CC1=O)c1ccccc1Nc1ccccc1C(=O)NN1C(=O)C=CC1=O	> 100 µM	> 100 µM	> 100 µM	> 100 µM	> 100 µM	> 100 µM	> 100 µM	> 100 µM	> 100 µM	> 100 µM	–	–	–	–	–	–	–	–	–	–
O=C(C#Cc1cn(C2CC(O)C(CO)O2)c(=O)[nH]c1=O)c1ccccc1 (stereo unspecified)	> 100 µM	> 100 µM	> 100 µM	> 100 µM	> 100 µM	37.7 µM	> 100 µM	> 100 µM	> 100 µM	24.8 µM	–	–	–	–	–	–	–	–	–	–
CC(=O)NC1=CC(=O)c2cc(C)cc(O)c2C1=O	46.9 µM	12.2 µM	33.4 µM	42.9 µM	5.21 µM	8.37 µM	45.9 µM	4.79 µM	14.1 µM	4.33 µM	–	–	–	–	–	–	–	–	–	–
CC(=O)NC1=C(C)C(=O)c2c(nc3n2CC[C@H]3OC(C)=O)C1=O	8.13 µM	7.4 µM	3.52 µM	8.22 µM	8.41 µM	1.4 µM	13.9 µM	2.2 µM	29.4 µM	3.14 µM	–	–	–	–	–	–	–	–	–	–
COc1ccc(C2(C3c4cc(OC)c(OC)cc4CCN3C)SCCCS2)cc1O (stereo unspecified)	> 100 µM	> 100 µM	> 100 µM	> 100 µM	> 100 µM	> 100 µM	> 100 µM	> 100 µM	> 100 µM	> 100 µM	–	–	–	–	–	–	–	–	–	–
CCOC(=O)C(=Cn1c(=S)[nH]c2ccc([N+](=O)[O-])cc21)C(=O)OCC	> 100 µM	> 100 µM	> 100 µM	> 100 µM	> 100 µM	> 100 µM	> 100 µM	> 100 µM	> 100 µM	> 100 µM	–	–	–	–	–	–	–	–	–	–
CN(C)CCn1c(=O)c2ccc3c4c(nn3CCN(C)C)c3ccccc3n(c1=O)c24	2.23 µM	4.07 µM	9.91 µM	0.52 µM	1.42 µM	2.63 µM	2.35 µM	3.24 µM	3.54 µM	2.13 µM	–	–	–	–	–	–	–	–	–	–
Cc1nnc2sc(N/N=C/c3ccccc3)nn12	> 100 µM	> 100 µM	> 100 µM	> 100 µM	> 100 µM	> 100 µM	> 100 µM	> 100 µM	> 100 µM	> 100 µM	–	–	–	–	–	–	–	–	–	–
COc1cc(CNc2nc3cc(C(F)(F)F)ccc3nc2C)cc(OC)c1OC	33.6 µM	65.7 µM	40 µM	96.4 µM	76.1 µM	> 100 µM	42.6 µM	37.9 µM	> 100 µM	41.8 µM	–	–	–	–	–	–	–	–	–	–
C/C(N=Nc1nc2ccccc2o1)=C1/C=CC=CN1O	> 100 µM	> 100 µM	> 100 µM	29 µM	> 100 µM	7.69 µM	34.9 µM	> 100 µM	> 100 µM	12.2 µM	–	–	–	–	–	–	–	–	–	–
CN(c1ccccc1Cl)S(=O)(=O)c1ccccc1[N+](=O)[O-]	> 100 µM	> 100 µM	> 100 µM	> 100 µM	> 100 µM	> 100 µM	> 100 µM	> 100 µM	> 100 µM	> 100 µM	–	–	–	–	–	–	–	–	–	–
CC(=O)OCC1OC(c2nnc(C)o2)=CC(OC(C)=O)C1OC(C)=O (stereo unspecified)	> 100 µM	> 100 µM	> 100 µM	> 100 µM	> 100 µM	> 100 µM	> 100 µM	> 100 µM	> 100 µM	> 100 µM	–	–	–	–	–	–	–	–	–	–
COc1ccc2c(c1)-c1oc3ccccc3c(=O)c1CO2	> 100 µM	> 100 µM	> 100 µM	50.6 µM	> 100 µM	> 100 µM	> 100 µM	99.3 µM	> 100 µM	> 100 µM	–	–	–	–	–	–	–	–	–	–
CS(=O)(=O)O.[Ag]	39.3 µM	6.29 µM	89.8 µM	34.2 µM	46.2 µM	88.5 µM	7.74 µM	24.4 µM	34.2 µM	3.79 µM	–	–	–	–	–	–	–	–	–	–
CCOC(=O)N(C)C1(c2ccccc2)CCN(CCCC(=O)c2ccc(F)cc2)CC1	38.1 µM	63.8 µM	81.1 µM	> 100 µM	> 100 µM	> 100 µM	> 100 µM	38.2 µM	> 100 µM	30 µM	–	–	–	–	–	–	–	–	–	–
N#Cc1nc(/C=C/c2ccccc2)oc1N	> 100 µM	> 100 µM	> 100 µM	> 100 µM	> 100 µM	> 100 µM	> 100 µM	> 100 µM	> 100 µM	> 100 µM	–	–	–	–	–	–	–	–	–	–
O=C(c1ccccc1)N1C(=S)N(c2ccc([N+](=O)[O-])cc2)C(=Nc2ccccc2)C1=Nc1ccccc1	> 100 µM	> 100 µM	> 100 µM	> 100 µM	> 100 µM	> 100 µM	> 100 µM	> 100 µM	> 100 µM	> 100 µM	–	–	–	–	–	–	–	–	–	–
CC(C)(NC1=NCCO1)c1ccccc1	> 100 µM	> 100 µM	> 100 µM	> 100 µM	> 100 µM	> 100 µM	> 100 µM	> 100 µM	> 100 µM	> 100 µM	–	–	–	–	–	–	–	–	–	–
O=C1C(N=Nc2ccc(-c3nc4ccccc4[nH]3)cc2)NC(=S)N1c1ccccc1 (stereo unspecified)	> 100 µM	60.2 µM	37.5 µM	> 100 µM	> 100 µM	> 100 µM	> 100 µM	> 100 µM	> 100 µM	> 100 µM	–	–	–	–	–	–	–	–	–	–
CCOC(=O)C(NCc1cccc(C(F)(F)F)c1)(NC(=O)c1ccccc1)C(F)(F)F (stereo unspecified)	48.5 µM	94.6 µM	> 100 µM	41.2 µM	70.8 µM	82 µM	> 100 µM	68.7 µM	> 100 µM	69 µM	–	–	–	–	–	–	–	–	–	–
